± gives the expanded uncertainty stated by the source.
Experiment: xn = mol fraction of the nth substance listed
Settings: Liquid, Vibrating tube method

NCCO [2-aminoethan-1-ol] + O
mass density [kg/m3]
Settings	x1 = 0.1122	x1 = 0.1643	x1 = 0.2278	x1 = 0.3067	x1 = 0.4077	x1 = 0.5412	x1 = 0.7264	x1 = 1
333.15 K, 101 kPa	–	–	–	–	1000.8 ± 0.7	998.2 ± 0.7	992.7 ± 0.7	983.9 ± 0.7
338.15 K, 101 kPa	989.5 ± 0.7	992.7 ± 0.7	995.4 ± 0.7	997.1 ± 0.7	997 ± 0.7	994.2 ± 0.7	988.7 ± 0.7	979.8 ± 0.7
343.15 K, 101 kPa	986.1 ± 0.7	989.4 ± 0.7	991.9 ± 0.7	993.2 ± 0.7	993.1 ± 0.7	990.2 ± 0.7	984.6 ± 0.7	975.8 ± 0.7
348.15 K, 101 kPa	983 ± 0.7	985.9 ± 0.7	988.3 ± 0.7	989.5 ± 0.7	989.2 ± 0.7	986.2 ± 0.7	980.6 ± 0.7	971.6 ± 0.7
353.15 K, 101 kPa	979.4 ± 0.7	982.4 ± 0.7	984.5 ± 0.7	985.6 ± 0.7	985.2 ± 0.7	982.1 ± 0.7	976.5 ± 0.7	967.5 ± 0.7
358.15 K, 101 kPa	976.1 ± 0.7	978.7 ± 0.7	980.8 ± 0.7	981.8 ± 0.7	981.2 ± 0.7	978 ± 0.7	972.3 ± 0.7	963.4 ± 0.7
363.15 K, 101 kPa	972.5 ± 0.7	975 ± 0.7	976.9 ± 0.7	977.7 ± 0.7	977.1 ± 0.7	973.9 ± 0.7	968.1 ± 0.7	959.2 ± 0.7
373.1 K, 700 kPa	965.3 ± 0.7	967.2 ± 0.7	969 ± 0.7	969.4 ± 0.7	968.5 ± 0.7	965.3 ± 0.7	959.3 ± 0.7	950.9 ± 0.7
383.15 K, 700 kPa	957.4 ± 0.7	959.1 ± 0.7	960.6 ± 0.7	960.8 ± 0.7	959.8 ± 0.7	956.5 ± 0.7	950.6 ± 0.7	942.3 ± 0.7
393.15 K, 700 kPa	949.1 ± 0.7	950.7 ± 0.7	952 ± 0.7	952.1 ± 0.7	950.9 ± 0.7	947.6 ± 0.7	941.7 ± 0.7	933.5 ± 0.7
403.15 K, 700 kPa	940.6 ± 0.7	941.9 ± 0.7	943.1 ± 0.7	943.1 ± 0.7	941.9 ± 0.7	938.6 ± 0.7	932.7 ± 0.7	924.7 ± 0.7
413.15 K, 700 kPa	931.7 ± 0.7	932.9 ± 0.7	934 ± 0.7	933.8 ± 0.7	932.6 ± 0.7	929.3 ± 0.7	923.6 ± 0.7	915.7 ± 0.7
423.15 K, 700 kPa	922.3 ± 0.7	923.3 ± 0.7	924.3 ± 0.7	924.1 ± 0.7	922.8 ± 0.7	919.5 ± 0.7	914.1 ± 0.7	906.4 ± 0.7

Reference: the NIST ThermoML archive (doi:10.1021/je2010038)
